The results in this text go back to patent US20080226605A1, “Methods and Compositions Facilitating Entry of Compounds Into Cells” (priority 2005, published 2008).

What all share (assay type): cell-based, Human
Experiment [1] deals with DU145 cells. In words: EGFP reporter uptake (pEGFP transfection, flow cytometry). Here is the method: (§1) Cell culture. Human prostate cancer cells DU145 were grown in RPMI 1640 medium, supplemented with 10% heat-inactivated fetal bovine serum (Life Technologies) under standard conditions (Carbone et al., Nucleic Acids Res. 2003, 31, 833-843; Carbone et al., Nucleic Acids Res 2004, 32, 4358-4367).
EGFP reporter uptake. DU145 cells were plated in 6-well plates at a density of 1.5×10^5 cells/well, grown overnight and then transfected. Trasfection mixtures contained 4 μg of pEGFP reporter plasmid with or without addition of neomycin and DOTAP at a 1:5 ratio as described above. Cells were incubated with the transfection complexes for 5 hours, then the medium was removed and replaced with fresh medium. After 24 hours, cells were harvested […], recovered by centrifugation, washed once with PBS, and then analyzed using a FACSCalibur (Becton Dickinson). Data were analyzed using Cell Quest software.
The effects of neomycin on transfection efficiency were further examined using another reporter system, a plasmid expressing green fluorescent protein, the pEGFP reporter vector. DU145 cells were transfected with the pEGFP plasmid in the presence of DOTAP, neomycin or both DOTAP and neomycin. After 24 hours, cells were collected and analyzed for EGFP expression by flow cytometry to examine both fluorescence intensity and percentage of EGFP-positive cells. […]

Experiment [2] concerns DU145 cells. The experiment can be described thus: Cellular uptake of fluorescein-labeled oligonucleotide (F-TFO), flow cytometry. Particulars: F-TFO 125 nM; for percentage of fluorescein-positive cells: neomycin 5 μM where present. The procedure:
as §1
Oligonucleotides and other reagents. The fluorescein-conjugated phosphorothioate oligonucleotide (F-TFO) was purchased from Sigma. The oligonucleotide was purified by high-performance liquid chromatography (HPLC). The sequence of the F-TFO, which is identical to the Ets2-TFO, has been published previously (Carbone et al., Nucleic Acids Res. 2003, 31, 833-843). Stock solutions of oligonucleotides were made in sterile water. Oligonucleotide concentrations were determined with a spectrophotometer using appropriate nucleotide extinction coefficients. DOTAP (1,2-dioleoyl-3-trimethyl-ammonium-propane) was purchased from Roche (Indianapolis, Ind.). Neomycin was purchased from Sigma, and used as described previously (Arya et al., J. Am. Chem. Soc. 2003, 125, 3733-3744).
Cellular uptake of oligonucleotides. Uptake of F-TFO and dauno-GT11 was examined 24 hours after transfection of DU145 cells (1.5×10^5 cells/well in 6-well plates) with DOTAP with or without the addition of neomycin as described above. Concentration of F-TFO was 125 nM, corresponding to about 1 μg of DNA/well. After 24 hours, cells were washed and analyzed using a FACSCalibur as described above.
Neomycin positively affected transfection efficiency of plasmid DNA mediated by DOTAP. This effect could be mediated by an increase in intracellular uptake and/or by an enhanced release of DNA from lipid complex into the cytoplasm. […] For the tests shown in FIG. 3, a phosporothioate oligonucleotide directed to the Ets2 gene promoter (Ets2-TFO) was conjugated at the 5′ end with fluorescein (Carbone et al., Nucleic Acids Res. 2003, 31, 833). Cells were transfected with the fluorescein labeled TFO (F-TFO) for 6 hours and then incubated for 24 hours in fresh medium before the analysis by flow cytometry. At the concentration used in the test, only about 7% of cells were fluorescein-positive when transfected with DOTAP alone. The percentage of fluorescein-positive cells increased to about 50% when the oligonucleotide was delivered using the combination of DOTAP and neomycin. Therefore, neomycin enhanced uptake of the F-TFO by approximately 7-fold.

Experiment [3] deals with DU145 cells. The experiment can be described thus: Luciferase reporter assay (transfection of reporter plasmids). Particulars: neomycin added to the medium after the transfection. Here is the method:
as §1
Reporter plasmids. The reporter plasmid pGL3-Ets2 containing the firefly luciferase gene under control of Ets2 promoter has been previously described (Carbone et al., Nucleic Acids Res 2004, 32, 4358-4367). The pRL-SV40 reporter plasmid was purchased from Promega. The pEGFP plasmid was obtained from Clontech.
Luciferase reporter assay. DU145 cells were plated in 48-well plates at a density of 1.5×10^4 cells/well. After 24 hours, cells were transfected with DOTAP-DNA complexes as previously described (Carbone et al., Nucleic Acids Res. 2003, 31, 833-843). […] Mixtures of DNA-DOTAP and DNA-DOTAP-neomycin were allowed to sit at room temperature for 15 minutes for complex formation. […] Luciferase activity was measured with the Luciferase assay system from Promega.
The effects of neomycin in combination with the cationic lipid preparation DOTAP on the uptake of luciferase reporter plasmids was determined. […] The efficiency of transfection as assessed by the luciferase assay increased as the concentration of neomycin increased from 0.5 to 5 μM (FIG. 1A). […]

Setting [4] is: flow cytometry 24 hours after transfection.

Take `CCCCCCCC/C=C\CCCCCCCC(=O)OCC(C[N+](C)(C)C)OC(=O)CCCCCCC/C=C\CCCCCCCC` (stereo not shown) [DOTAP, 1,2-dioleoyl-3-trimethyl-ammonium-propane]: in the experiment on DU145 cells [1] (pEGFP plasmid 4 μg, flow cytometry after 24 hours), the “mean fluorescent intensity (EGFP)” value is recorded as 27.8. Besides, in the experiment with DU145 cells [2] (setting [4]), the “mean fluorescent intensity (F-TFO)” value is listed as 19.4 and the “percentage of fluorescein-positive cells” value was “about 7%”.

As for neomycin, in the experiment with DU145 cells [3], the “effect on luciferase reporter activity” value is “No effect”. For the same compound, the “efficiency of DNA uptake” value with DU145 cells [1] (pEGFP plasmid, neomycin alone (5 μM), without DOTAP) is “marginally affected”. Further, in the experiment on DU145 cells [2] (setting [4]), the “percentage of fluorescein-positive cells” value was determined as 2.4%. For the same compound, the oligonucleotide uptake result in the experiment on DU145 cells [2] (neomycin alone (5 μM), without DOTAP) is listed as “did not affect”.
